According to the Bradley open melting point set (2014):
Values joined by “and” are separate entries in the source; they are usually repeats but may differ in a detail not shown here. Identical values can stand only once.

Row | Structure (SMILES) | melting point
1 | CC(O)CO (stereo not drawn) [1,2-propanediol] | -60 °C
2 | O=[N+]([O-])c1ccccc1O [nitrophenol] | 45 °C
3 | COC(=O)c1ccccc1C(=O)OC [Dimethyl phthalate] | 2 °C
4 | CCc1c(C)cccc1C [1,3-dimethyl-2-ethylbenzene] | -16 °C
5 | Cc1ccc(C)o1 [2,5-dimethylfuran] | -62 °C
6 | C=C(C)CC [2-methyl-1-butene] | -137 °C
7 | CCc1cccc(C)c1N(C(=O)CCl)C(C)COC (stereo not drawn) [metolachlor] | 25 °C
8 | Cc1cc(O)ccc1O [2-methylhydroquinone] | 129 °C
9 | CCC(=O)c1ccc(Cl)cc1 [1-(4-Chlorophenyl)propan-1-one] | 35.5 °C
10 | CCCCCCCCCC#N [decanonitrile] | -15 °C
11 | Cc1cccc(Cl)c1N [2-chloro-6-methylaniline] | 2 °C
12 | O=C(O)c1cc([N+](=O)[O-])cc([N+](=O)[O-])c1 [3,5-Dinitrobenzoic acid] | 206 °C
13 | O=S1(=O)CC=CC1 [3-sulfolene] | 65 °C
14 | O=[N+]([O-])c1cccc(F)c1O [2-fluoro-6-nitrophenol] | 93 °C
15 | CC(=O)Nc1ccc(C(=O)O)cc1 [4-acetamidobenzoic_acid] | 259 °C
16 | N#Cc1ccccc1Br [2-bromobenzonitrile] | 55 °C
17 | CC(C)(Oc1ccc(Cl)cc1)C(=O)O [2-(4-chlorophenoxy)isobutyric acid] | 120 °C
18 | N#C/C=C/C#N [(2E)-But-2-enedinitrile] | 97 °C
19 | CCC#N [ethyl_cyanide] | -93 °C
20 | CCN(CC)c1ccc(C=NO)cc1 [4-diethylaminobenzaldoxime] | 96 °C
21 | O=[N+]([O-])c1ccc(Cc2ccccn2)c([N+](=O)[O-])c1 [2-(2,4-Dinitrobenzyl)pyridine] | 92 °C

Row | Structure (SMILES) | melting point
22 | CC(=O)c1cc(O)ccc1O [2',5'-dihydroxyacetophenone] | 206 °C
23 | CC12CCC3C(CCC4CC(O)CCC43C)C1CCC2=O (stereo not drawn) [3-Hydroxyandrostan-17-one] | 174 °C
24 | CCCCc1ccc(C(N)=O)cc1 [4-n-butylbenzamide] | 128 °C
25 | CC(C)I [2-Iodopropane] | -90 °C
26 | Cc1ccccc1CP(=O)(O)O [2-methylbenzylphosphonic acid] | 186 °C
27 | CCOc1cccc(B(O)O)c1 [3-ethoxybenzeneboronic acid] | 144 °C
28 | O=C(O)CCc1ccccc1 | 49 °C
29 | CC(=O)Oc1ccc2c3c1O[C@H]1[C@@H](OC(C)=O)C=C[C@H]4[C@@H](C2)N(C)CC[C@@]341 [heroin] | 173 °C
30 | Nc1ccc2ncsc2c1 [6-aminobenzothiazole] | 88 °C
31 | Nc1cccc2ccc(O)cc12 [8-amino-2-naphthol] | 208 °C
32 | O=[N+]([O-])c1ccc(Cl)c([N+](=O)[O-])c1 [1-chloro-2,4-dinitrobenzene] | 53 °C
33 | O=C(O)CCc1ccccc1 [3-phenylpropionic acid] | 48.5 °C
34 | CCC1(C(C)C)C(=O)NC(=O)NC1=O [probarbital] | 203 °C
35 | COc1cccc(OC)c1OCC(=O)O [2,6-dimethoxyphenoxyacetic acid] | 81 °C
36 | CCC1(CC)C(=O)NC(=O)NC1=O [barbital] | 190 °C
37 | BrC(Br)c1ccccc1C(Br)Br [alpha,alpha,alpha',alpha'-tetrabromo-o-xylene] | 116 °C
38 | Clc1c(Cl)c(Cl)c(Cl)c(Cl)c1Cl [hexachlorobenzene] | 230 °C and 229 °C
39 | CCCCc1ccc(O)cc1 [4-n-butylphenol] | 22 °C
40 | Nc1ccc(N=Nc2ccccc2)cc1 [4-(Phenyldiazenyl)aniline] | 124 °C
41 | CC(=O)OCCCCOC(C)=O [1,4-diacetoxybutane] | 13 °C
42 | CN(C)c1ccc([N+]([O-])=CC(=O)c2ccc(C(=O)C=[N+]([O-])c3ccc(N(C)C)cc3)cc2)cc1 | 133 °C

Row | Structure (SMILES) | melting point
43 | COc1ccc(O)cc1 [4-methoxyphenol] | 56 °C
44 | ClCC(Cl)(Cl)Cl [1,1,1,2-tetrachloroethane] | -70 °C
45 | N#CCCCCC#N [1,4-dicyanobutane] | 2 °C
46 | O=C(c1ccccc1)c1ccc(O)cc1O [2,4-dihydroxybenzophenone] | 146 °C
47 | CC1=CCCCC1 [1-methylcyclohexene] | -120 °C
48 | Nc1ccc(O)c(C(=O)O)c1 [5-aminosalicylic acid] | 280 °C
49 | CC1(O)CCCCC1 [1-methylcyclohexanol] | 26 °C
50 | C=CCC1(CC(C)C)C(=O)NC(=O)NC1=O [Butalbital] | 138 °C
51 | O=[N+]([O-])c1ccc(Br)cc1 [1-bromo-4-nitrobenzene] | 126 °C
52 | BrCCCBr [1,3-dibromopropane] | -34 °C
53 | NNC(=O)c1ccc(Br)cc1 [4-bromobenzhydrazide] | 168 °C
54 | Cc1cccc2c1Cc1ccccc1-2 [1-methylfluorene] | 85 °C
55 | C/C=C/c1ccccc1 [trans-1-phenyl-1-propene] | -29 °C
56 | CCCCc1ccc(C(=O)O)cc1 [4-butylbenzoic_acid] | 100 °C
57 | Cc1c[nH]c2ccccc12 [3-methylindole] | 96 °C
58 | CC(C)CC1=C/C(=C/c2ccc(-c3ccccc3)o2)C(=O)O1 | 76 °C
59 | CC(CCc1oc2ccc([N+](=O)[O-])cc2c1-c1ccc(C)o1)=NO | 161 °C
60 | Brc1cccc(I)c1 [1-bromo-3-iodobenzene] | -9 °C
61 | COc1ccc(I)cc1 [4-iodoanisole] | 50 °C

Results, then the compound that gave them:

Row | melting point | Structure (SMILES)
62 | -85 °C | CCOB(OCC)OCC [triethyl borate]
63 | 74 °C | Nc1ccc(Nc2ccccc2)cc1 [N-phenyl-p-phenylenediamine]
64 | 21 °C | c1cncnc1 [pyrimidine]
65 | 207 °C | CC1(C)[C@H]2CC[C@]1(C)[C@H](O)C2 [borneol]
66 | 120 °C | O=[N+]([O-])c1cccc(C=NO)c1 [m-Nitrobenzaldehyde oxime]
67 | -92 °C | CCCCC=O [valeraldehyde]
68 | 1 °C | Clc1ccccc1I [o-chloroiodobenzene]
69 | 180 °C | CCCCC1=NC2(CCCC2)C(=O)N1Cc1ccc(-c2ccccc2-c2nnn[nH]2)cc1 [Irbesartan]
70 | 176 °C | Cc1cc(C)nc(NS(=O)(=O)c2ccc(N)cc2)n1 [sulfamethazine]
71 | 241 °C | O=C(O)c1ccc([N+](=O)[O-])cc1 [p-nitrobenzoic_acid]
72 | 255 °C | OB(O)c1cc2ccccc2s1 [benzo[b]thiophene-2-boronic acid]
73 | 221 °C | C[C@]12CCC(=O)C=C1CC[C@@H]1[C@@H]2[C@@H](O)C[C@@]2(C)[C@H]1CC[C@]2(O)C(=O)CO [hydrocortisone]
74 | 196 °C | Cc1cc(C)nc(NS(=O)(=O)c2ccc(N)cc2)n1 [Sulfamethazine] [listing 1 of 2 here]
75 | 267 °C | c1ccc2c(P(c3cccc4ccccc34)c3cccc4ccccc34)cccc2c1 [tri(1-naphthyl)phosphine]
76 | 67.5 °C | CCOC(=O)c1cc(C)n(-c2ccc(C(F)(F)F)cc2)c1C [OSM-S-32]
77 | 122 °C | O=C(O)c1ccccc1 [Benzoic acid]
78 | 15 °C | OC1CCCCCCC1 [cyclooctanol]
79 | -6 °C | Cc1ccc(C=O)cc1 [p-tolualdehyde]
80 | 194 °C | Cc1noc(NS(=O)(=O)c2ccc(N)cc2)c1C [Sulfisoxazole]
81 | -34 °C | CCCCC(=O)O [pentanoic_acid]
82 | 52 °C | c1ccc(CCc2ccccc2)cc1 [Bibenzyl]
83 | 24 °C | CCCCCCCCCCCC(C)=O [Tridecan-2-one]
84 | 30 °C | c1ccc2nccnc2c1 [quinoxaline]
85 | 130 °C | CC(C)(C#N)c1cc(Cn2cncn2)cc(C(C)(C)C#N)c1 [Anastrozole]

Row | melting point | Structure (SMILES)
86 | -5 °C | CCCCCCCCCCCCC [Tridecane]
87 | 160 °C | C/C(=N\Nc1cccc2cccnc12)c1cccs1 [8-{(2E)-2-[1-(2-Thienyl)ethylidene]hydrazino}quinoline]
88 | 42 °C | N#Cc1ccc(CO)cc1 [p-cyano_benzyl_alcohol]
89 | 109 °C | C=CCc1ccccc1OCC(O)CNC(C)C (stereo not drawn) [alprenolol]
90 | 207 °C | CC1(C)[C@@H]2CC[C@@]1(C)[C@@H](O)C2 [borneol]
91 | 38 °C | COc1ccccc1C=O [o-anisaldehyde]
92 | 175 °C | N#Cc1coc2ccccc2c1=O [chromone-3-carbonitrile]
93 | 176 °C | C[C@]12CC[C@@H]3c4ccc(O)cc4CC[C@H]3[C@@H]1CC[C@@H]2O [Estradiol]
94 | 104 °C | COC(=O)/C=C/C(=O)OC [dimethyl_fumarate]
95 | 18.4 °C and 18.5 °C | CS(C)=O [Dimethyl sulfoxide]
96 | 100 °C | CCOC(=O)c1cnn(C)c1N [ethyl 5-amino-1-methyl-1h-pyrazole-4-carboxylate]
97 | 141 °C | C#CC1(O)CCC2C3CCc4cc(O)ccc4C3CCC21C (stereo not drawn) [17a-Ethynylestradiol]
98 | 143 °C | NC(=O)c1ccccc1Cl [o-chlorobenzamide]
99 | 104 °C | COC(=O)/C=C/C(=O)OC [Dimethyl (2E)-but-2-enedioate]
100 | 103 °C | COC(=O)c1ccc(I)c([N+](=O)[O-])c1 [methyl 4-iodo-3-nitrobenzoate]
101 | 100 °C | CCc1c(C)[nH]c2ccc(N(C)C)cc12 [medmain]
102 | 198 °C | Cc1cc(C)nc(NS(=O)(=O)c2ccc(N)cc2)n1 [Sulfamethazine] [listing 2 of 2 here]
103 | 101 °C | CCOc1ccc(NC(=O)CN)cc1 [phenocoll]
104 | -43 °C | CCCCCCC=O [heptanal]
105 | -27 °C | C1=CC=CC=CC=C1 [Cycloocta-1,3,5,7-tetraene]
106 | 104 °C | OC[C@@H](O)[C@H](O)[C@@H](O)CO [D-Xylitol]
107 | 3 °C | c1ccc(COCc2ccccc2)cc1 [benzyl_ether]
108 | 128 °C | Fc1c(F)c(F)c(B(c2c(F)c(F)c(F)c(F)c2F)c2c(F)c(F)c(F)c(F)c2F)c(F)c1F [tris(pentafluorophenyl)borane]
